The target of data set [1] is T1, ENT1 (Homo sapiens, UniProt Q99808).
T1 sequence (Q99808 1-456): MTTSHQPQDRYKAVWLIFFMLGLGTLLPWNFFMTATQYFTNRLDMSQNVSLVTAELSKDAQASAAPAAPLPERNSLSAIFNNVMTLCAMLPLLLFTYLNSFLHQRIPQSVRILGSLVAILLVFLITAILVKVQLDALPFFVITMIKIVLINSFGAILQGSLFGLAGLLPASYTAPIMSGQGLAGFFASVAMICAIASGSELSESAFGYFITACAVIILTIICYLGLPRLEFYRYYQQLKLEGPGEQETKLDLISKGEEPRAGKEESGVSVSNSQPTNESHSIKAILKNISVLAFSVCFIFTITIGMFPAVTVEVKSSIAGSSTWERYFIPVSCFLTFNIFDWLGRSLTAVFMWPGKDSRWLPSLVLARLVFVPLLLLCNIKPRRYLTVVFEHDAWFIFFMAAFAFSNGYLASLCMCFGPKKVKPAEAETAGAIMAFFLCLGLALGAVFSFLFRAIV
Nature of the data set: Inhibition of [3H]uridine uptake into WT HeLa. It is filed as cell-based. To be noted: for inhibition at 20 µM: HeLa; for ENT1 % Inhibition (±SD): 20 μM, model-predicted compounds from MedChem Express Drug Repurposing Library.

In data set [2] the target is T2, ENT2 (Homo sapiens, UniProt Q14542).
T2 sequence (Q14542 1-456): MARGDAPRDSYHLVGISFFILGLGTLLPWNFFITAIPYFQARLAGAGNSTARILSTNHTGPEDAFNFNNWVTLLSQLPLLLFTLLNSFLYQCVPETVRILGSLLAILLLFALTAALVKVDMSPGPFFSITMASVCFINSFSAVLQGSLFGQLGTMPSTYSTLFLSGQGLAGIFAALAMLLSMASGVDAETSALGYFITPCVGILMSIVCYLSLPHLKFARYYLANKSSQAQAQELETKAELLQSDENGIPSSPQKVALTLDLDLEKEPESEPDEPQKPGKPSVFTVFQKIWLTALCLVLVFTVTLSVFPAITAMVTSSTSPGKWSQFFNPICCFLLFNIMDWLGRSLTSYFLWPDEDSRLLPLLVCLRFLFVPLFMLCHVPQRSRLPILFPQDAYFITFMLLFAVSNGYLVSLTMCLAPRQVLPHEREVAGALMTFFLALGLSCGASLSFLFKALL
As to the kind of experiment: Inhibition of [3H]uridine uptake into HeLa FlpIn cells overexpressing hENT2. It counts as cell-based. Particulars: for inhibition at 20 µM: HeLa; for ENT2 % Inhibition (20μM): 20 μM compound, 5 min [3H]uridine uptake, HeLa cells overexpressing hENT2.

A further data set has as its system HeLa S2 cell line. As to the kind of experiment: Functional assessment: NBMPR block of [3H]uridine uptake in HeLa S2 cells. It counts as cell-based, human. Particulars: 100 nM NBMPR, 2 minutes.
For data set [3], the system named is HeLa FlpIn ENT2 cell line. Particulars: 2 minutes.
The conditions of data set [4]: ref Table S8, cited from earlier work.
In data set [5] the target is T1, ENT1. As to the kind of experiment: Kinetics of radiolabeled uridine uptake, ENT1 cell line. It counts as cell-based. Particulars: 5 min uptake, pH 7.4.
Data set [6] concerns the target T2, ENT2. To be noted: 5 min uptake, pH 7.4.
[7] abbreviates: read-out: ENT1 % Inhibition (20μM).
Where [8] appears, read: read-out: ENT2 % Inhibition (20μM).
[9] abbreviates: read-out: ENT1 inhibition of uridine uptake (Spectrum screen, text).
Setting [10] is: read-out: ENT2 inhibition of transport activity (Spectrum screen, text).
Setting [11] is: read-out: ENT1 % Inhibition (±SD).

Values joined by “and” are separate entries in the source; they are usually repeats but may differ in a detail not shown here. Identical values can stand only once. Counter-ions that a name gives are not always drawn. Like-named read-outs stand apart in the source and are kept apart here.

As usually defined, the inhibition is the share of the control response that was lost under treatment. In general, IC50 refers to the concentration at which inhibition is half-maximal. Consider `O=c1[nH]c2ccccc2n1CCCN1CCC(n2c(=O)[nH]c3cc(Cl)ccc32)CC1` [domperidone], for which the figures for the inhibition at 20 µM on ENT1 [1] (setting [7]) and on ENT2 [2] (setting [8]) were 24.4% and 64.3%, respectively. Moreover, the IC50 on ENT2 [2] is 0.16 ± 0.04 µM.
Regarding `O=c1c(O)c(-c2ccc(O)c(O)c2)oc2cc(O)cc(O)c12` [quercetin], the IC50 turned out to be 20.6 ± 6.8 µM on ENT1 [1] and 117 ± 24.6 µM at ENT2 [2]. The inhibition at 20 µM at ENT1 [1] (setting [7]) was found to be 53.1%; on ENT2 [2] (setting [8]), 84.3%.
On to `O=c1c(O)c(-c2cc(O)c(O)c(O)c2)oc2cc(O)cc(O)c12` [myricetin], for which the figures for the half-maximal inhibitory concentration (IC50) against ENT1 [1] and against ENT2 [2] were 47.4 ± 1.7 µM and 28.2 ± 1.6 µM, respectively. In addition, the inhibition at 20 µM at ENT1 [1] (setting [7]) is 82.4%.
As for `O=[N+]([O-])c1ccc(CSc2ncnc3c2ncn3C2OC(CO)C(O)C2O)cc1` (stereo not shown) [NBMPR, nitrobenzylthioinosine], the “reduction of [3H]uridine uptake” value in the data set on HeLa S2 cell line is given as 65–75%. The “total [3H]uridine uptake blocked” value in data set [3] (100 nM NBMPR) is on record as ~ 55%. The “total [3H]uridine uptake reduced” value in data set [3] (100 μM NBMPR) is ~ 80%.
Consider `CC(=O)N1CCN(c2ccc(OCC3COC(Cn4ccnc4)(c4ccc(Cl)cc4Cl)O3)cc2)CC1` (stereo not shown) [ketoconazole], for which the “human plasma levels (molar)” value in data set [4] (converted from ng/mL) was 6.6 µM and 11.3 µM. In addition, the human plasma levels in data set [4] (documented clinical concentrations) was 3500 ng/mL and 6000 ng/mL. The 50% inhibitory concentration (IC50) on ENT1 [1] amounted to 7.2 ± 1.2 µM; on ENT2 [2] it was 22.8 ± 0.7 µM. Moreover, the inhibition at 20 µM at ENT1 [1] (setting [7]) came out at 98.4%; on ENT2 [2] (setting [8]), 89.4%.
With `CC(=O)[C@H]1CC[C@H]2[C@@H]3C[C@H](C)C4=CC(=O)CC[C@]4(C)[C@H]3[C@@H](O)C[C@]12C` [medrysone], the IC50 came out at 4.44 ± 0.9 µM on ENT1 [1] and 210 ± 89.2 µM against ENT2 [2]. The inhibition at 20 µM on ENT1 [1] (setting [7]) was found to be 95.1%; on ENT2 [2] (setting [8]) it was 56.3%.
On to `Cc1ccc([C@@H]2O[C@H](CO)[C@@H](O)[C@H](O)[C@H]2O)cc1Cc1ccc(-c2ccc(F)cc2)s1` [canagliflozin], for which, at ENT1 [1] (20 μM compound, 5 min [3H]uridine uptake, WT HeLa cells), the “ENT1 % Inhibition (20μM)” value stood at 74.5%. In addition, the IC50 on ENT1 [1] (read-out: ENT1 IC50 (μM) ± SD, 5 min uptake of ~10 nM [3H]uridine, WT HeLa cells) stood at 24 ± 5.1 µM. The “ENT2 % Inhibition (20μM)” value at ENT2 [2] is 56.5%.
Regarding `COc1ccc(-c2cc(=O)c3c(OC)c(OC)c(OC)cc3o2)cc1OC` [sinensetin], the IC50 turned out to be 1.25 ± 0.3 µM at ENT1 [1] and 22.2 ± 2.2 µM against ENT2 [2]. In addition, the inhibition at 20 µM is 95.9% on ENT1 [1] (setting [7]), about 80% on ENT1 [1] (setting [9]), 82.5% at ENT2 [2] (setting [8]) and 35% at ENT2 [2] (setting [10]).
On to `CCc1oc2ccccc2c1C(=O)c1cc(Br)c(O)c(Br)c1` [benzbromarone], for which the values for the IC50 against ENT1 [1] and on ENT2 [2] were 29.8 ± 2.1 µM and 262 ± 108 µM, respectively. The results for the inhibition at 20 µM on ENT1 [1] (setting [7]) and at ENT2 [2] (setting [8]) were 79.6% and 25.4%, respectively.
`O=C(O[C@@H]1Cc2c(O)cc(O)cc2O[C@@H]1c1ccc(O)c(O)c1)c1cc(O)c(O)c(O)c1` [Epicatechin gallate] showed an IC50 on ENT1 [1] of 4 µM. Besides, the inhibition at 20 µM at ENT1 [1] (setting [9]) is about 85%.
Regarding `Cc1ccc(C(=O)Nc2ccc(Oc3cc4cnn(C)c4cc3-c3cn[nH]c3)c(F)c2)c(=O)n1-c1ccc(F)cc1.Cl.Cl` [Merestinib dihydrochloride], the “ENT1 % Inhibition (±SD)” value at ENT1 [1] was 58.49 (4.13) %.
In the case of `C=CC[C@@H]1/C=C(\C)C[C@H](C)C[C@H](OC)[C@H]2O[C@@](O)(C(=O)C(=O)N3CCCC[C@H]3C(=O)O[C@H](/C(C)=C/[C@@H]3CC[C@@H](O)[C@H](OC)C3)[C@H](C)[C@@H](O)CC1=O)[C@H](C)C[C@@H]2OC` [tacrolimus], the inhibition at 20 µM on ENT1 [1] (setting [9]) is about 80%; at ENT2 [2] (setting [10]) it was 35%.
Take `COc1ccc(S(=O)(=O)Nc2cc(-c3c(O)ccc4ccccc34)c(O)c3ccccc23)cc1` [C188-9]: the “ENT1 % Inhibition (±SD)” value at ENT1 [1] was 72.99 (5.06) %.
`COc1cc2ncnc(Nc3ccc(F)c(Cl)c3)c2cc1OCCCN1CCOCC1` [gefitinib]: the inhibition at 20 µM on ENT2 [2] (setting [8]) is 54.6%.
`CNc1nc(-c2cccc(NC(=O)c3ccc(C(=O)OC)cc3)c2)c2cc(OC)c(OC)cc2n1` [Lotamilast]: at ENT1 [1] (setting [11]), the inhibition at 20 µM was 81.3%.
Turning to `COc1cc(C[C@H]2C(=O)OC[C@@H]2Cc2ccc(OC)c(OC)c2)ccc1O` [Arctigenin], the inhibition at 20 µM on ENT1 [1] (setting [11]) worked out at 67.5%.
As for `CCCOc1ccc(S(=O)(=O)N2CCN(CCO)CC2)cc1-c1nc2c(CCC)cn(CC)c2c(=O)[nH]1` [Mirodenafil (dihydrochloride), Mirodenafil], the inhibition at 20 µM on ENT1 [1] (setting [11]) is 79.3%.
On to `COc1cc(OC)c2c(=O)[nH]c(-c3cc(C)c(OCCO)c(C)c3)nc2c1` [Apabetalone], for which the inhibition at 20 µM on ENT1 [1] (setting [11]) came out at 88.1%.
On to `CCCCC1(CCCC)CN(c2ccccc2)c2cc(SC)c(OCC(=O)N[C@@H](C(=O)N[C@@H](CC)C(=O)O)c3ccc(O)cc3)cc2S(=O)(=O)N1` [Odevixibat], for which, on ENT1 [1] (setting [11]), the inhibition at 20 µM was 78.3%.
For the molecule `CCOC(=O)c1ncn2c1CN(C)C(=O)c1cc(F)ccc1-2` [flumazenil], the IC50 against ENT1 [1] was 121 ± 0.7 µM; against ENT2 [2], 3.82 ± 0.3 µM. Further, the inhibition at 20 µM on ENT1 [1] (setting [7]) came to 20%; at ENT2 [2] (setting [8]) it was 85.1%.
On to `COc1ccc(CN=c2[nH]c(N3CCC[C@H]3CO)ncc2C(=O)NCc2ncccn2)cc1Cl` [Avanafil], for which the inhibition at 20 µM at ENT1 [1] (setting [11]) turned out to be 100%.
In the case of `COC(=O)C1=C(C)NC(C)=C(C(=O)OCCN(C)Cc2ccccc2)C1c1cccc([N+](=O)[O-])c1` (stereo not shown) [Nicardipine (hydrochloride), Nicardipine], the inhibition at 20 µM at ENT1 [1] (setting [11]) stood at 76.8%.
For `COc1ccc2[nH]c([S+]([O-])Cc3ncc(C)c(OC)c3C)nc2c1` (stereo not shown) [Omeprazole (sodium), Omeprazole], the inhibition at 20 µM on ENT1 [1] (setting [11]) was determined as 51.3%.
`CCCCc1nc(Cl)c(CO)n1Cc1ccc(-c2ccccc2-c2nn[nH]n2)cc1` [losartan]: the IC50 on ENT2 [2] came to 172 ± 60.2 µM. Moreover, the inhibition at 20 µM at ENT2 [2] (setting [8]) was determined as 33%.
In the case of `NC[C@H]1O[C@H](O[C@H]2[C@H](O)[C@@H](O[C@H]3O[C@H](CO)[C@@H](O)[C@H](N)[C@H]3O)[C@H](N)C[C@@H]2N)[C@H](O)[C@@H](O)[C@@H]1O` [kanamycin], on ENT1 [1], the “ENT1 % Inhibition (20μM)” value was determined as 43.7%. For the same molecule, on ENT2 [2], the “ENT2 % Inhibition (20μM)” value is 11.7%.
Take `C=CC(=O)N1CCC(c2ccc(C(N)=O)c(-c3ccc(Oc4ccccc4)cc3)n2)CC1` [Orelabrutinib]: the inhibition at 20 µM on ENT1 [1] (setting [11]) is 87.5%.
On to `O=c1ccn([C@@H]2O[C@H](CO)[C@@H](O)[C@H]2O)c(=O)[nH]1` [uridine], for which, on ENT1 [5], the “Jmax, maximal rate of uridine transport” value is 20.2 ± 5.1 pmol·cm^−2·min^−1 and the “Kt, Michaelis constant for uridine” value was 37.7 ± 12.9 µM. Further, the “Kt, Michaelis constant for uridine” value on ENT2 [6] is 119.1 ± 28.9 µM.
`C[C@@H]1O[C@@H](O[C@H]2[C@H](Oc3cc(O)c4c(c3)O[C@H](c3ccc(O)cc3)CC4=O)O[C@H](CO)[C@@H](O)[C@@H]2O)[C@H](O)[C@H](O)[C@H]1O` [naringin]: the IC50 is 101 ± 8.9 µM on ENT1 [1] and 266 ± 81.5 µM at ENT2 [2]. For the same molecule, the inhibition at 20 µM on ENT1 [1] (setting [7]) is 24.4%; at ENT2 [2] (setting [8]), 8.5%.
In the case of `C[C@]12CC[C@@H]3c4ccc(O)cc4CC[C@H]3[C@@H]1CC[C@H]2O` [Alpha-Estradiol], the inhibition at 20 µM on ENT1 [1] (setting [11]) turned out to be 77.2%.
Take `COC(=O)c1cc(OC)c2c(c1-c1c(CO)cc(OC)c3c1OCO3)OCO2` [Bicyclol]: the inhibition at 20 µM on ENT1 [1] (setting [11]) came out at 72.3%.
`C#Cc1cccc(Nc2ncnc3cc(OC)c(OCCCN4CCOCC4)cc23)c1` [NRC-2694]: on ENT1 [1], the “ENT1 % Inhibition (±SD)” value is given as 67.27 (11.1) %.

(Values after paper PMC12486301 (The Journal of pharmacology and experimental therapeutics, 2025).)
